In US8598413B2, “AAD-1 event DAS-40278-9, related transgenic corn lines, event-specific identification thereof, and methods of weed control involving AAD-1” (Dow AgroSciecnes, LLC., priority 2009, dated 2013):

How the values were obtained:
[1] = system: conventional control hybrid; assay: Field tolerance to preemergence applications of 2,4-D (Example 13, Table 31); type: in vivo, corn; details: PRE (0-2 days after planting), evaluated 16-21 days after application
Experimental: (§1) Transgenic hybrid corn (pDAS1740-278) containing the aad-1 gene which encodes the aryloxyalkanoate dioxygenase (AAD-1) protein was evaluated for tolerance to preemergence applications of 2,4-D in the field. Trials were conducted at multiple locations in Mississippi, Indiana, and Minnesota using a randomized complete block design with three replications of two row plots, approximately 6 m in length, at each site. Herbicide-treated plots were paired with untreated plots to provide accurate evaluation of emergence and early season growth. Herbicide treatments of 1120, 2240, and 4480 g ae/ha of 2,4-D amine were applied shortly after planting but before crop emergence (0-2 days after planting). Soil and precipitation information for these trials is contained in Table 30.

[2] = system: hybrid corn containing pDAS1740-278; assay: as above; type: in vivo; details: PRE (0-2 days after planting), evaluated 16-21 days after application, pDAS1740-278 Hybrid
Experimental: as §1

[3] = system: transgenic cotton containing the aad-1 gene; assay: Field tolerance of aad-1 cotton to preemergence applications of 2,4-D (Example 13); type: in vivo
Experimental: Transgenic cotton containing the aad-1 gene which encodes the aryloxyalkanoate dioxygenase (AAD-1) protein was evaluated for tolerance to preemergence applications of 2,4-D in the field. Trials consisted of three replications and were conducted at multiple locations in Mississippi, Georgia, Tennessee, and Arkansas. A randomized complete block design of a single row separated by a guard row, approximately 10 feet (20 feet for the Mississippi trial) in length was used. Seed was planted using 8 seed per foot, plants were then hand thinned to 3.5 plants/foot of row. Herbicide-treated plots were paired with untreated plots to provide accurate evaluation of emergence and early season growth. All plots received at least ½ inch of rain or irrigation water within 24 hours of application. Herbicide treatments of 560, 1120, 2240, and 4480 g ae/ha of 2,4-D amine (WEEDAR 64, Nufarm, Burr Ridge, Ill.) were applied shortly after planting but before crop emergence. Soil and precipitation information for these trials is contained in Table 32.

[4] = system: hybrid corn containing the aad-1 gene; assay: 2,4-D amine applied 7, 15 or 30 days preplanting, corn (Example 13); type: in vivo; details: 1120, 2240, 4480 g ae/ha at 7, 15 or 30 days preplanting
Description: Preemergence applications of 2,4-D amine are applied at rates of 1120, 2240, 4480 g ae/ha at 7 days, 15 days, or 30 days preplanting to hybrid corn containing the aad-1 gene and conventional control hybrids. The preemergence applications are applied using art recognized procedures to field plots which are located at geographically distinct locales. Herbicide-treated plots are paired with untreated plots to provide accurate evaluation of emergence and early season growth. Approximately 16-21 days after planting and 2,4-D applications at 7, 15 or 30 days preplanting; injury of the conventional control hybrids and hybrid corn containing aad-1 are measured.

[5] = preemergence 560, 1120, 2240 and 4480 gm ae/ha

## O=C(O)COc1ccc(Cl)cc1Cl [2,4-D, 2,4-dichlorophenoxyacetic acid]
[1]; 1120 g ae/ha
  Percent Plant Injury: 12%
[1]; 2240 g ae/ha
  Percent Plant Injury: 16%
[1]; 4480 g ae/ha
  Percent Plant Injury: 31%
[2]; 1120 g ae/ha
  Percent Plant Injury: 3%
[2]; 2240 g ae/ha
  Percent Plant Injury: 4%
[2]; 4480 g ae/ha
  Percent Plant Injury: 9%
[3]; 560, 1120, 2240 and 4480 gm ae/ha, remainder of the season
  Chlorosis: not detected
[3]; 560 and 1120 gm ae/ha
  Injury: not significantly different from the untreated control plot
[3]; 560 and 1120 gm ae/ha, 7 to 8, 11 to 14, 27 to 30 and 52 to 57 days after application
  growth inhibition: less than 2%
[3]; 560 and 1120 gm ae/ha, 7 to 8 days after application
  Chlorosis: not detected
[3]; 560 gm ae/ha, 7 to 8 days after planting and preemergence application
  stand reduction: 3%
[3]; 560 gm ae/ha, 11 to 14 days after planting and application
  stand reduction: 5%
[3]; 1120 gm ae/ha, 7 to 8 days after planting and preemergence application
  stand reduction: no reduction
[3]; 1120 gm ae/ha, 11 to 14 days after planting and application
  stand reduction: 2%
[3]; 2240 and 4480 gm ae/ha, 7-8 days after application
  Chlorosis, visual rating: < 5%
[3]; 2240 gm ae/ha
  growth inhibition: < 10%
[3]; 2240 gm ae/ha, 7 to 8 days after planting and preemergence application
  stand reduction: 19%
[3]; 2240 gm ae/ha, 11 to 14 days after planting and application
  stand reduction: 14%
[3]; 4480 gm ae/ha, 7 to 8 days after application
  growth inhibition: 27%
[3]; 4480 gm ae/ha, 7 to 8 days after planting and preemergence application
  stand reduction: 34%
[3]; 4480 gm ae/ha, 11 to 14 days after application
  growth inhibition: 28%
[3]; 4480 gm ae/ha, 11 to 14 days after planting and application
  stand reduction: 25%
[3]; 4480 gm ae/ha, 27 to 30 days after application
  growth inhibition: 17%
[3]; 4480 gm ae/ha, 52 to 57 days after application
  growth inhibition: 8.3%
[3]; [5]
  Differences in plant height, fruiting pattern, and yield: not detected
  epinasty: did not cause epinasty
[3]; preemergence 560, 1120 and 2240 gm ae/ha, compared to untreated plot
  effect on plant stands: did not significantly affect plant stands
[4]
  tolerance of preemergence treatments: robust tolerance
